# Experimental data: PubChem BioAssay AID336 (DTP/NCI, 2004)
# Several values for one entry are separate records, joined by “and”; a condition that tells them apart may be missing. Identical values can stand only once. Inconclusive results and toxic doses are left out.
# System: BDF1 mice, P388/VCR leukemia ip, median survival T/C
# Test: NCI In Vivo Anticancer Drug Screen. Data for tumor model P388 Leukemia resistant to Vincristine; NSC 67574 (intraperitoneal) in B6D2F1 (BDF1) mice
# Conditions: endpoint: median survival time, higher = longer survival
# Experimental: The antitumor activity of compounds was measured in mice bearing transplantable tumors. Survival or tumor size were measured and the results are expressed as the measurement made in the treated group (T) divided by the measurement made in the vehicle treated control group (C). The tumor model used in this assay is P388 Leukemia resistant to Vincristine; NSC 67574 (intraperitoneal) in B6D2F1 (BDF1) mice
# [1] = dose: 6.25 mg/kg/injection, schedule: Q01DX010 (ip), vehicle: saline
# [2] = dose: 12.5 mg/kg/injection, schedule: Q01DX010 (ip), vehicle: saline
# [3] = dose: 1.56 mg/kg/injection, schedule: Q01DX010 (ip), vehicle: saline
# [4] = dose: 3.13 mg/kg/injection, schedule: Q01DX010 (ip), vehicle: saline
# [5] = dose: 250.0 mg/kg/injection, schedule: Q01DX010 (ip), vehicle: saline
# [6] = dose: 375.0 mg/kg/injection, schedule: Q01DX010 (ip), vehicle: saline
# [7] = dose: 25.0 mg/kg/injection, schedule: Q01DX010 (ip), vehicle: saline
# [8] = dose: 50.0 mg/kg/injection, schedule: Q01DX010 (ip), vehicle: saline
# [9] = dose: 100.0 mg/kg/injection, schedule: Q01DX010 (ip), vehicle: saline
# [10] = dose: 200.0 mg/kg/injection, schedule: Q01DX010 (ip), vehicle: saline
# [11] = dose: 8.0 mg/kg/injection, schedule: Q01DX010 (ip), vehicle: saline
# [12] = dose: 16.0 mg/kg/injection, schedule: Q01DX010 (ip), vehicle: saline
# [13] = dose: 90.0 mg/kg/injection, schedule: Q01DX010 (ip), vehicle: saline
# [14] = dose: 2.5 mg/kg/injection, schedule: Q01DX010 (ip), vehicle: saline
# [15] = dose: 5.0 mg/kg/injection, schedule: Q01DX010 (ip), vehicle: saline
# [16] = dose: 10.0 mg/kg/injection, schedule: Q01DX010 (ip), vehicle: saline
# [17] = dose: 20.0 mg/kg/injection, schedule: Q01DX010 (ip), vehicle: saline
# [18] = dose: 40.0 mg/kg/injection, schedule: Q01DX010 (ip), vehicle: saline
# [19] = dose: 60.0 mg/kg/injection, schedule: Q01DX010 (ip), vehicle: saline
# [20] = dose: 120.0 mg/kg/injection, schedule: Q01DX010 (ip), vehicle: saline
compound,measurement,setting,value
O=NN(CCCl)C(=O)NCCCl,T/C,[1],300 % of control
same,T/C,[2],188 % of control and 300 % of control
same,T/C,"dose: 13.0 mg/kg/injection, schedule: Q01DX001 (ip), vehicle: saline",151 % of control
same,T/C,"dose: 21.6 mg/kg/injection, schedule: Q01DX001 (ip), vehicle: saline",164 % of control
same,T/C,"dose: 36.0 mg/kg/injection, schedule: Q01DX001 (ip), vehicle: saline",212 % of control
[I][Hg][CH2]C1COC([CH2][Hg][I])CO1 (configuration not stated),T/C,"dose: 0.78 mg/kg/injection, schedule: Q01DX010 (ip), vehicle: saline",88 % of control
same,T/C,[3],103 % of control
same,T/C,[4],111 % of control
O=C(Nc1ccc(C2=NCCN2)cc1)c1cc(C(=O)Nc2ccc(C3=NCCN3)cc2)cc([N+](=O)[O-])c1,T/C,"dose: 167.0 mg/kg/injection, schedule: Q01DX010 (ip), vehicle: saline",95 % of control
same,T/C,[5],100 % of control
same,T/C,[6],95 % of control
same,T/C,"dose: 512.0 mg/kg/injection, schedule: Q01DX010 (ip), vehicle: saline",100 % of control
O=C1C(NC(=O)C2CCCCC2)=C(N2CC2)C(=O)C(NC(=O)C2CCCCC2)=C1N1CC1,T/C,[7],103 % of control
same,T/C,[8],115 % of control
same,T/C,[9],115 % of control
same,T/C,[10],123 % of control
c1ccc(CNc2ncnc3[nH]ncc23)cc1,T/C,[11],92 % of control and 100 % of control
same,T/C,[12],88 % of control and 96 % of control
same,T/C,"dose: 32.0 mg/kg/injection, schedule: Q01DX010 (ip), vehicle: saline",100 % of control
same,T/C,"dose: 64.0 mg/kg/injection, schedule: Q01DX010 (ip), vehicle: saline",92 % of control
O=C(Nc1ccc(C2=NCCN2)cc1)c1ccc(C(=O)Nc2ccc(C3=NCCN3)cc2)c(F)c1,T/C,"dose: 22.5 mg/kg/injection, schedule: Q01DX010 (ip), vehicle: saline",100 % of control
same,T/C,"dose: 45.0 mg/kg/injection, schedule: Q01DX010 (ip), vehicle: saline",107 % of control
same,T/C,[13],123 % of control
O=C(Nc1ccc(C2=NCCN2)cc1)c1ccc(C(=O)Nc2ccc(C3=NCCN3)cc2)c(NC(=O)c2ccc(C(=O)Nc3cc(C(=O)Nc4ccc(C5=NCCN5)cc4)ccc3C(=O)Nc3ccc(C4=NCCN4)cc3)cc2)c1,T/C,[7],109 % of control
same,T/C,[8],109 % of control
same,T/C,[9],104 % of control
same,T/C,[10],104 % of control
CSc1ncnc2nc[nH]c12,T/C,[7],104 % of control and 107 % of control
same,T/C,[8],103 % of control and 116 % of control
same,T/C,[9],112 % of control and 115 % of control
same,T/C,[10],111 % of control and 112 % of control
O=C(Nc1ccc(NC(=O)Nc2ccc(C3=NCCN3)cc2)cc1)Nc1ccc(C2=NCCN2)cc1,T/C,[5],150 % of control
same,T/C,[6],154 % of control
Nc1nc(=S)c2ncn(C3OC(CO)C(O)C3O)c2[nH]1 (configuration not stated),T/C,"dose: 0.5 mg/kg/injection, schedule: Q01DX010 (ip), vehicle: saline",92 % of control
same,T/C,"dose: 1.0 mg/kg/injection, schedule: Q01DX010 (ip), vehicle: saline",107 % of control
same,T/C,"dose: 2.0 mg/kg/injection, schedule: Q01DX010 (ip), vehicle: saline",155 % of control
same,T/C,"dose: 4.0 mg/kg/injection, schedule: Q01DX010 (ip), vehicle: saline",110 % of control
same,T/C,[11],105 % of control
same,T/C,[12],100 % of control
NC(Cc1ccc(N(CCCl)CCCl)cc1)C(=O)O (configuration not stated),T/C,"dose: 1.25 mg/kg/injection, schedule: Q01DX010 (ip), vehicle: saline",170 % of control
same,T/C,[14],190 % of control and 191 % of control
same,T/C,[15],300 % of control
same,T/C,[16],86 % of control and 91 % of control
Cn1c(N)nc2nc[nH]c2c1=S,T/C,[16],92 % of control and 100 % of control
same,T/C,[17],96 % of control and 107 % of control
same,T/C,[18],100 % of control and 123 % of control
same,T/C,"dose: 80.0 mg/kg/injection, schedule: Q01DX010 (ip), vehicle: saline",96 % of control
O=C(Nc1ccc(C2=NCCN2)cc1)Nc1cccc(NC(=O)Nc2ccc(C3=NCCN3)cc2)c1,T/C,[19],179 % of control and 183 % of control
same,T/C,[20],241 % of control and 279 % of control
same,T/C,"dose: 480.0 mg/kg/injection, schedule: Q01DX010 (ip), vehicle: saline",108 % of control and 116 % of control
Nc1nc(=S)c2[nH]cnc2[nH]1,T/C,"dose: 1.25 mg/kg/injection, schedule: Q01DX010 (ip), vehicle: other",165 % of control
same,T/C,"dose: 5.0 mg/kg/injection, schedule: Q01DX010 (ip), vehicle: other",103 % of control and 107 % of control
CC[C@@]1(O)C[C@H](OC2CC(N(C)C)C(OC3CC(O)C(OC4CCC(=O)C(C)O4)C(C)O3)C(C)O2)c2c(cc3c(c2O)C(=O)c2c(O)ccc(O)c2C3=O)[C@H]1C(=O)OC (some centres not stated),T/C,"dose: 2.88 mg/kg/injection, schedule: Q04DX003 (ip), vehicle: water",118 % of control
same,T/C,"dose: 4.8 mg/kg/injection, schedule: Q04DX003 (ip), vehicle: water",117 % of control
same,T/C,"dose: 8.0 mg/kg/injection, schedule: Q04DX003 (ip), vehicle: water",95 % of control
O=C1CCC(N2C(=O)c3ccccc3C2=O)C(=O)N1 (configuration not stated),T/C,"dose: 62.5 mg/kg/injection, schedule: Q01DX010 (ip), vehicle: saline",95 % of control
same,T/C,"dose: 125.0 mg/kg/injection, schedule: Q01DX010 (ip), vehicle: saline",91 % of control
O=C1N[C@@H]([C@H]2CC[C@H](Cl)CN2)C(=O)N[C@H]1[C@H]1CC[C@H](Cl)CN1,T/C,"dose: 2.4 mg/kg/injection, schedule: Q04DX003 (ip), vehicle: saline",212 % of control
same,T/C,"dose: 4.0 mg/kg/injection, schedule: Q04DX003 (ip), vehicle: saline",225 % of control
S=P(N1CCOCC1)(N1CC1)N1CC1,T/C,[14],104 % of control and 109 % of control
same,T/C,[15],100 % of control and 109 % of control
same,T/C,[16],100 % of control and 122 % of control
same,T/C,[17],86 % of control and 90 % of control
O=C(Nc1cccc(NC(=O)Nc2cccc(C3=NCCN3)c2)c1)Nc1cccc(C2=NCCN2)c1,T/C,[18],154 % of control
same,T/C,[13],118 % of control
C[C@H]1C(=O)O[C@@H]2CCN3CC=C(COC(=O)[C@](C)(O)[C@@]1(C)O)[C@H]23,T/C,[3],108 % of control
same,T/C,[4],112 % of control
same,T/C,[1],91 % of control
same,T/C,[2],100 % of control
C[N+](C)(C)c1ncnc2nc[nH]c12,T/C,"dose: 15.0 mg/kg/injection, schedule: Q01DX010 (ip), vehicle: saline",100 % of control
same,T/C,"dose: 30.0 mg/kg/injection, schedule: Q01DX010 (ip), vehicle: saline",120 % of control
same,T/C,[19],113 % of control
same,T/C,[20],116 % of control
Nc1nc(N)c2nc(CNc3ccc(C(=O)NC(CCC(=O)O)C(=O)O)cc3)cnc2n1 (configuration not stated),T/C,"dose: 25.0 micrograms/kg/injection, schedule: Q01DX010 (ip), vehicle: other",118 % of control
same,T/C,"dose: 50.0 micrograms/kg/injection, schedule: Q01DX010 (ip), vehicle: other",114 % of control
same,T/C,"dose: 200.0 micrograms/kg/injection, schedule: Q01DX010 (ip), vehicle: other",166 % of control and 175 % of control
O=C(Nc1ccc(C2=NCCN2)cc1)c1ccc(C(=O)Nc2ccc(C3=NCCN3)cc2)c([N+](=O)[O-])c1,T/C,"dose: 6.0 mg/kg/injection, schedule: Q01DX010 (ip), vehicle: saline",103 % of control
same,T/C,[11],114 % of control
same,T/C,"dose: 12.0 mg/kg/injection, schedule: Q01DX010 (ip), vehicle: saline",111 % of control
same,T/C,"dose: 18.0 mg/kg/injection, schedule: Q01DX010 (ip), vehicle: saline",104 % of control and 111 % of control
COc1ccc(CC2C(=O)NC(C)C(=O)N(C)C3Cc4ccc(cc4)Oc4cc(ccc4O)CC(C(=O)NC(C)C(=O)NC(C)C(=O)N2C)N(C)C3=O)cc1 (configuration not stated),T/C,"dose: 4.32 mg/kg/injection, schedule: Q04DX003 (ip), vehicle: other",108 % of control
same,T/C,"dose: 7.2 mg/kg/injection, schedule: Q04DX003 (ip), vehicle: other",103 % of control
